Experimental data as given in ChEMBL document CHEMBL5550142, “From lab to nature: Recent advancements in the journey of gastroprotective agents from medicinal chemistry to phytotherapy” (Eur J Med Chem, 2024).
Converted amounts (≈) assume the structure as drawn.

species: Rattus norvegicus; assay: Anti-ulcer activity in stress-induced Sprague-Dawley rat […] model assessed as reduction in ulcer fomation; format: functional; design: Activity: concentration or dose not given beside the values; details: not given

| SMILES | Activity |
| --- | --- |
| CCCc1cc([S+]([O-])c2nc3ccccc3[nH]2)nc(C)n1 (stereo unspecified) | 74.03% |
| COC1Oc2ccccc2-c2sc(C=O)cc21 (stereo unspecified) | 7.3% |
| CCCc1cc([S+]([O-])c2nc3cc([N+](=O)[O-])ccc3[nH]2)nc(C)n1 (stereo unspecified) | 75.15% |
| CC(C)Cc1ccc(C(C)C(=O)NS(=O)(=O)c2ccc(N)cc2)cc1 (stereo unspecified) | 8% |
| CC(C)Cc1ccc(C(C)C(=O)O)cc1 (stereo unspecified) [IBUPROFEN] | 35% |
| CCCc1cc([S+]([O-])c2nc3cc(C)ccc3[nH]2)nc(C)n1 (stereo unspecified) | 72.87% |

same assay, conditions: Rattus norvegicus, Sprague-Dawley

| SMILES | ED50 |
| --- | --- |
| Cc1c(OCC(F)(F)C(F)F)ccnc1C[S+]([O-])c1nc2ccccc2[nH]1 (stereo unspecified) | 1.2 mg/kg |
| [O-][S+](Cc1cc(OCC(F)(F)F)ccn1)c1nc2ccccc2[nH]1 (stereo unspecified) | 2 mg/kg |
| Cc1c(OCC(F)(F)C(F)(F)F)ccnc1C[S+]([O-])c1nc2ccccc2[nH]1 (stereo unspecified) | 5.1 mg/kg |
| Cc1c(OCC(F)(F)F)ccnc1C[S+]([O-])c1nc2ccccc2[nH]1 (stereo unspecified) [LANSOPRAZOLE] | 2.4 mg/kg |

tested on: Helicobacter pylori; assay: Antibacterial activity against Helicobacter pylori ATCC 43504 assessed as minimum bactericidal concentration incubated for 24 hrs by broth micro-dilution method; format: functional; details: not given

| SMILES | MBC |
| --- | --- |
| Cc1c(CSc2nc3ccccc3[nH]2)cccc1SCCn1c([N+](=O)[O-])cnc1C | 2 mg/L (≈ 4.55 µM) |
| Cc1c(CSc2nc3ccccc3[nH]2)cccc1SCCN1CCOCC1 | 1 mg/L (≈ 2.5 µM) |
| Cc1c(CSc2nc3ccccc3[nH]2)cccc1SCCn1cncn1 | 4 mg/L (≈ 10.5 µM) |
| COCCOCCOCCSc1cccc(CSc2nc3ccccc3[nH]2)c1C | 0.5 mg/L (≈ 1.16 µM) |
| COCCOCCOCCOCCOCCSc1cccc(CSc2nc3ccccc3[nH]2)c1C | 0.5 mg/L (≈ 0.96 µM) |

tested on: Helicobacter pylori; assay: Antibacterial activity against Helicobacter pylori assessed as inhibition of bacterial growth by broth micro-dilution assay; format: functional; details: not given

| SMILES | MIC90 |
| --- | --- |
| Cc1c(CSc2nc3ccccc3[nH]2)cccc1SCCOC(=O)Nc1ccccc1 | > 64 mg/L |

tested on: not listed separately; assay: Cmax in C57BL/6 mouse administered via oral gavage by LC-MS/MS analysis; format: ADME; details: in vivo

| SMILES | Cmax |
| --- | --- |
| Cc1c(CSc2nc3ccccc3[nH]2)cccc1SCCOC(=O)Nc1ccccc1 | 0.9 µg/mL |

molecular target: not listed separately; assay: Inhibition of Hydrogen potassium ATPase (unknown origin); design: species or system Homo sapiens; details: not given

| SMILES | IC50 |
| --- | --- |
| Cc1ccc(-c2csc(NC(=O)/C=C/c3ccc(O)c(O)c3)n2)cc1 | 35.35 mg/L |
| COc1ccc2[nH]c([S+]([O-])Cc3ncc(C)c(OC)c3C)nc2c1 (stereo unspecified) [OMEPRAZOLE] | 37.91 mg/L |

same assay, conditions: read-out: IC50

| SMILES | IC50 |
| --- | --- |
| CCc1ccc(-c2nc3c(C(=O)NCc4cccc(CN)c4)cccn3c2NCc2ccccc2)cc1 | 6 µM |
| Cc1ccccc1-c1nc2c(C(=O)NCc3cccc(CN)c3)cccn2c1NCc1ccccc1 | 6.2 µM |
| COc1ccc(C2CC(c3ccco3)=Nc3ccccc3S2)cc1 (stereo unspecified) | 2 µM |
| Brc1ccc(C2CC(c3ccco3)=Nc3ccccc3S2)cc1 (stereo unspecified) | 2.1 µM |

molecular target: Urease subunit alpha/Urease subunit beta (Helicobacter pylori (strain ATCC 700392 / 26695) (Campylobacterpylori), UniProt P69996); assay: Inhibition of Helicobacter pylori urease; format: protein-complex assay; details: not given
Sequence (P69996 whole entry): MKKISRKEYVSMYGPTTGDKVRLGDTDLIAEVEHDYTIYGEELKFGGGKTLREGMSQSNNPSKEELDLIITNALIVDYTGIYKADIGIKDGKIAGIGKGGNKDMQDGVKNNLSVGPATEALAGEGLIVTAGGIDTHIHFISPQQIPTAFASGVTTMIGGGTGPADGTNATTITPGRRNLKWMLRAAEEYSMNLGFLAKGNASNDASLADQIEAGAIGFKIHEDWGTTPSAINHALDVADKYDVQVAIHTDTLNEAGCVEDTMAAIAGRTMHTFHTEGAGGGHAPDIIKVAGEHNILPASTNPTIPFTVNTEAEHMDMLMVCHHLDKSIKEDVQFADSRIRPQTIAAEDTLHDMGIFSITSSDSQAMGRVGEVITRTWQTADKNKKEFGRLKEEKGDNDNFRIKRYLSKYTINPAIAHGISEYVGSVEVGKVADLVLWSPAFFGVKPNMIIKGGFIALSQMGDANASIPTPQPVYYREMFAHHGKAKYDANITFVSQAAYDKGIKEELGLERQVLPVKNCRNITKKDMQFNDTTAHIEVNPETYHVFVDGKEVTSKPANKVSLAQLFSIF
Sequence (P14916 whole entry, further chain): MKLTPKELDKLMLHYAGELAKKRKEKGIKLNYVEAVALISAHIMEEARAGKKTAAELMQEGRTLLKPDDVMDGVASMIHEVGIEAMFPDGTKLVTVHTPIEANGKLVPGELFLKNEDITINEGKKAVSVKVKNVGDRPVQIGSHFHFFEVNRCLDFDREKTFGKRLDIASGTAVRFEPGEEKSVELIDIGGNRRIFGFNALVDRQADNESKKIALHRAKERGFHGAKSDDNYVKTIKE

| SMILES | IC50 |
| --- | --- |
| O=C(Cc1c[nH]c2ccccc12)N/N=C/c1ccc(O)cc1O | 1.2 µM |
| O=C(Cc1c[nH]c2ccccc12)N/N=C/c1ccc(O)c(O)c1 | 0.6 µM |
| O=C(Cc1c[nH]c2ccccc12)N/N=C/c1cccc(O)c1O | 0.9 µM |

tested on: not listed separately; assay: Inhibition of urease (unknown origin); design: species or system Homo sapiens; details: not given

| SMILES | IC50 |
| --- | --- |
| COc1ccc(C(=O)N/N=C/c2cc(O)cc(O)c2)cc1OC | 8.4 µM |
| COc1ccc(C(=O)N/N=C/c2cc(O)c(O)c(O)c2)cc1OC | 12.6 µM |
| COc1ccc(C(=O)N/N=C/c2cc(O)ccc2O)cc1OC | 19.2 µM |
| COc1ccc(C(=O)N/N=C/c2ccc(O)c(O)c2)cc1OC | 18.2 µM |
| COC(=O)c1ccc(/C=N/NC(=O)Cc2c[nH]c3ccccc23)cc1 | 3.9 µM |
| CC(C)=CCOc1c2ccoc2cc2oc(=O)ccc12 [ISOIMPERATORIN] | 36.4 µM |

tested on: Rattus norvegicus; assay: Protection against aspirin-induced Sprague-Dawley rat model assessed as reduction in gastric glandular lesion at 20 mg/kg, po administered for 30 mins once a day relative to control; format: functional; design: scale not given: the % may be the effect or the level left; details: 0.5 h

| SMILES | Activity |
| --- | --- |
| CC(CC1OCCc2ccccc21)NCCc1ccccc1 (stereo unspecified) | 71.3% |
| CC(C)NC(C)CC1OCCc2ccccc21 (stereo unspecified) | 61% |
| CC(CC1CCCc2ccccc21)NCC(C)c1ccccc1 (stereo unspecified) | 71.3% |
| CN/C(=N\CCSCc1nc[nH]c1C)NC#N [CIMETIDINE] | 51.6% |
| CC(CC1OCCc2ccccc21)NCC(C)c1ccccc1 (stereo unspecified) | 71.3% |

tested on: Rattus norvegicus; assay: Gastric ulcerogenic activity in Albino wistar rat assessed as reduction in pyloric lesion at 250 mg/kg, po relative to control; format: functional; design: scale not given: the % may be the effect or the level left; details: not given

| SMILES | Activity |
| --- | --- |
| N#Cc1c(NC(=O)c2c(-c3ccccc3)cnn(-c3ccc(Cl)cc3)c2=N)sc2sc(-c3cc4ccccc4oc3=O)nc12 | 94% |
| N#C/C(C(=O)Nc1sc2sc(-c3cc4ccccc4oc3=O)nc2c1C#N)=C(\C=N\Nc1ccccc1)c1ccccc1 | 66% |
| N#Cc1c(O)nc2sc3sc(-c4cc5ccccc5oc4=O)nc3c2c1O | 70% |
| O=c1oc2ccccc2cc1-c1nc2c(s1)sc1nc(=S)n(-c3ccccc3)c(O)c12 | 78% |
| N#Cc1c(N)sc2sc(-c3cc4ccccc4oc3=O)nc12 | 64% |
| COc1ccc(-n2ncc(-c3ccccc3)c(C(=O)Nc3sc4sc(-c5cc6ccccc6oc5=O)nc4c3C#N)c2=N)cc1 | 93% |
| CCOC(=O)/C(C(=O)Nc1sc2sc(-c3cc4ccccc4oc3=O)nc2c1C#N)=C(/C)c1ccccc1 | 48% |
| N#CC1=C(N)Nc2nc(-c3cc4ccccc4oc3=O)sc2C1c1ccccc1 (stereo unspecified) | 82% |

tested on: Mus musculus; assay: Anti-inflammatory activity against carrageenan-induced hind paw edema Swiss albino mouse model assessed as reduction in paw thickness at 10 mg/kg, po relative to control; format: functional; design: scale not given: the % may be the effect or the level left; details: not given

| SMILES | Activity |
| --- | --- |
| CCOC(=O)/C(=N/Nc1ccccc1)Sc1nnc(-c2c([C@H]3CC[C@H]4[C@@H]5CC=C6C[C@H](O)CC[C@]6(C)[C@H]5CC[C@]34C)csc2N)n1-c1ccccc1 | 0.96% |
| CC(=O)/C(=N/Nc1ccccc1)Sc1nnc(-c2c([C@H]3CC[C@H]4[C@@H]5CC=C6C[C@H](O)CC[C@]6(C)[C@H]5CC[C@]34C)csc2N)n1-c1ccccc1 | 1.77% |
| CCOC1=C(Sc2nnc(-c3c([C@H]4CC[C@H]5[C@@H]6CC=C7C[C@H](O)CC[C@]7(C)[C@H]6CC[C@]45C)csc3N)n2-c2ccccc2)C(c2ccccc2)C(C#N)=C(N)N1 (stereo partly specified) | 0.18% |

tested on: Mus musculus; assay: Gastric ulcerogenic activity in Swiss albino mouse model assessed as inhibition of gastric inflammation at 250 mg/kg, po relative to control; format: functional; design: scale not given: the % may be the effect or the level left; details: not given

| SMILES | Activity |
| --- | --- |
| CCOC(=O)/C(=N/Nc1ccccc1)Sc1nnc(-c2c([C@H]3CC[C@H]4[C@@H]5CC=C6C[C@H](O)CC[C@]6(C)[C@H]5CC[C@]34C)csc2N)n1-c1ccccc1 | 6.7% |
| CC(=O)/C(=N/Nc1ccccc1)Sc1nnc(-c2c([C@H]3CC[C@H]4[C@@H]5CC=C6C[C@H](O)CC[C@]6(C)[C@H]5CC[C@]34C)csc2N)n1-c1ccccc1 | 6.2% |
| CCOC1=C(Sc2nnc(-c3c([C@H]4CC[C@H]5[C@@H]6CC=C7C[C@H](O)CC[C@]7(C)[C@H]6CC[C@]45C)csc3N)n2-c2ccccc2)C(c2ccccc2)C(C#N)=C(N)N1 (stereo partly specified) | 5.9% |

tested on: Mus musculus; assay: Anti-ulcerogenic activity in ethanol-induced gastric ulcer mouse model assessed as reduction in ulcer formation at 250 mg/kg; format: functional; details: not given

| SMILES | Activity_index |
| --- | --- |
| COc1ccc(C2C(C#N)=C(O)OC(Nc3nc4c(s3)C[C@H]3[C@@H]5CCC6=CC(=O)CC[C@]6(C)[C@H]5CC[C@]43C)=C2C#N)cc1 (stereo partly specified) | 2.48 |
| CCOC(=O)CN1CCN(S(=O)(=O)c2cc(C)c3cc(C(C)C)ccc(C)c2-3)CC1 | 1.875 |
| Cc1cc(S(=O)(=O)N2CCN(S(C)(=O)=O)CC2)c2c(C)ccc(C(C)C)cc1-2 | 1.714 |
| C[C@]12CCC(=O)C=C1CC[C@@H]1[C@@H]2CC[C@]2(C)c3nc(NC4=C(C#N)C(c5ccc(Cl)cc5)C(C#N)=C(N)O4)sc3C[C@@H]12 (stereo partly specified) | 2.48 |
| Cc1cc(S(=O)(=O)N2CCN(S(=O)(=O)c3ccccc3)CC2)c2c(C)ccc(C(C)C)cc1-2 | 1.12 |

tested on: Rattus norvegicus; assay: Gastric ulcerogenic activity in Wistar rat assessed as reduction in gastric inflammation at 0.02 mg/kg, po relative to control; format: functional; design: scale not given: the % may be the effect or the level left; details: not given

| SMILES | Activity |
| --- | --- |
| COc1ccc2[nH]c([S+]([O-])Cc3nc(Cl)c4c(-c5ccc(Cl)cc5)csc4n3)nc2c1 (stereo unspecified) | 72.6% |
| O=C1NC(=O)C(=C(/C=C/c2ccc(Cl)cc2)c2nc3ccccc3[nH]2)C(=O)N1 | 69.56% |
| CN(C)c1ccc(/C=C/C(=C2C(=O)NC(=O)NC2=O)c2nc3ccccc3[nH]2)cc1 | 69.56% |
| COc1ccc2[nH]c([S+]([O-])Cc3nc(Cl)c4c(-c5ccccc5)csc4n3)nc2c1 (stereo unspecified) | 70.2% |
| COc1nc(C[S+]([O-])c2nc3ccccc3[nH]2)nc2scc(-c3ccccc3)c12 (stereo unspecified) | 64.6% |
| O=C1NC(=O)C(=C(/C=C/c2ccccc2)c2nc3ccccc3[nH]2)C(=O)N1 | 63.04% |
| COc1ccc(/C=C/C(=C2C(=O)NC(=O)NC2=O)c2nc3ccccc3[nH]2)cc1 | 67.17% |

molecular target: T1, Gastrin/cholecystokinin type B receptor (Homo sapiens, UniProt P32239); assay: Antagonist activity at human CCKBR; format: functional; details: not given
T1 sequence (P32239 whole entry): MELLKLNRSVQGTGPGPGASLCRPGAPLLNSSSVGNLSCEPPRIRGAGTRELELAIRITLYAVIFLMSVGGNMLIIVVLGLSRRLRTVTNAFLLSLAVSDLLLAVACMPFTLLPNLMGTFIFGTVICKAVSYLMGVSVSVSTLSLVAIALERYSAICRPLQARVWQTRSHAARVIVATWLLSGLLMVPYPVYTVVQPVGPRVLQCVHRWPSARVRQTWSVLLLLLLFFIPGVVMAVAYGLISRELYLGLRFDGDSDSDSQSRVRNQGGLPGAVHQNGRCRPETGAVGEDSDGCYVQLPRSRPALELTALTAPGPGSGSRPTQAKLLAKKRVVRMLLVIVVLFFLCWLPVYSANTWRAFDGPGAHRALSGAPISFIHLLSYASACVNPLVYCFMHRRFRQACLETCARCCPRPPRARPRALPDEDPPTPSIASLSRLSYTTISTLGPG

| SMILES | IC50 |
| --- | --- |
| CCCc1ccc([C@@H]2N[C@H](C(=O)OC)CC3c4ccccc4NC32)cc1 (stereo partly specified) | 140 µM |
| COC(=O)[C@H]1Cc2c([nH]c3ccccc23)[C@H](c2ccc(C)cc2)N1 | 64.6 µM |

tested on: Helicobacter pylori; assay: Antibacterial activity against Helicobacter pylori ATCC 43504 assessed as reduction in bacterial growth incubated for 24 hrs by broth micro-dilution method; format: functional; details: not given

| SMILES | MIC |
| --- | --- |
| C=CCSCC=C [DIALLYL SULFIDE] | 100 mg/L (≈ 876 µM) |

tested on: Helicobacter pylori; assay: Antibacterial activity against Helicobacter pylori assessed as reduction in bacterial growth incubated for 24 hrs by broth micro-dilution method; format: functional; details: not given

| SMILES | MIC |
| --- | --- |
| COc1ccc2c(c1OC)C(=O)O[C@@H]2[C@H]1c2cc3c(cc2CCN1C)OCO3 [HYDRASTINE] | 25 mg/L (≈ 65.2 µM) |
| COc1cc2ccc(=O)oc2cc1O[C@@H]1O[C@H](CO)[C@@H](O)[C@H](O)[C@H]1O [SCOPOLIN] | 50 mg/L (≈ 141 µM) |
| COc1cc2ccc(=O)oc2cc1O [SCOPOLETIN] | 50 mg/L (≈ 260 µM) |
| C=CCSSSSCC=C [DIALLYL TETRASULFIDE] | 3 mg/L (≈ 14.3 µM) |
| COc1ccc2cc3[n+](cc2c1OC)CCc1cc2c(cc1-3)OCO2 [BERBERINE] | 0.78 mg/L |
